Laboratory results as given in patent publication US7163954B2, “Substituted naphthyl benzothiophene acids” (Wyeth, priority 2003, dated 2007).

Key:
[1] = target: T1, recombinant human plasminogen activator inhibitor-1 (PAI-1) (Homo sapiens, UniProt P05121); experiment: Primary screen for the PAI-1 inhibition (residual tPA activity, Spectrozyme-tPA chromogenic substrate); assay type: biochemical; conditions: 25 μM test compound; inhibition of Plasminogen Activator Inhibitor-1
T1 construct: purchased Molecular Innovations, Royal Oak, Mich
T1 sequence (P05121 24-402): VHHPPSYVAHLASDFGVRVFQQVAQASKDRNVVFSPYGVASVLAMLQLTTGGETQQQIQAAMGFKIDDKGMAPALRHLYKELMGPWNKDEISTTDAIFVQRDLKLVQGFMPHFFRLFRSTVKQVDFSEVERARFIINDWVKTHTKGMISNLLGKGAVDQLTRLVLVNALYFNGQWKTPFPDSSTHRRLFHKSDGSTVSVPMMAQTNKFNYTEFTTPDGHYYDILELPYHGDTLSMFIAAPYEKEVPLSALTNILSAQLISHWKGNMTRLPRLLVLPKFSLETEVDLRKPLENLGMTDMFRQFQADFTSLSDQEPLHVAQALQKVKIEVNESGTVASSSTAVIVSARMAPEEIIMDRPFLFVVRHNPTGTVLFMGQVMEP
Experimental: Test compounds are dissolved in DMSO at a final concentration of 10 mM, then diluted 100× in physiologic buffer. The inhibitory assay is initiated by the addition of the test compound (1–100 μM final concentration, !maximum DMSO concentration of 0.2%) in a pH 6.6 buffer containing 140 nM recombinant human plasminogen activator inhibitor-1 (PAI-1; Molecular Innovations, Royal Oak, Mich.). Following a 1 hour incubation at room temperature, 70 nM of recombinant human tissue plasminogen activator (tPA) is added, and the combination of the test compound, PAI-1 and tPA is incubated for an additional 30 minutes. Following the second incubation, Spectrozyme-tPA (American Diagnostica, Greenwich, Conn.), a chromogenic substrate for tPA, is added and absorbance read at 405 nm at 0 and 60 minutes. Relative PAI-1 inhibition is equal to the residual tPA activity in the presence of the test compound and PAI-1. Control treatments include the complete inhibition of tPA by PAI-1 at the molar ratio employed (2:1), and the absence of any effect of the test compound on tPA alone.

Compound | inhibition at 25 µM [1] | melting point
CCCCC(=O)c1c(-c2ccc3c(Br)c(OCc4nnn[nH]4)ccc3c2)sc2ccccc12 [Compound 1, 1-{2-[5-Bromo-6-(1H-tetrazol-5-ylmethoxy)-naphthalen-2-yl]-benzo[b]thiophen-3-yl}-pentan-1-one] | 59% | 
CCCCC(=O)c1c(-c2ccc3c(Br)c(OCC(=O)O)ccc3c2)sc2ccccc12 [Compound 2, [1-Bromo-6-(3-pentanoyl-benzo[b]thiophen-2-yl)-naphthalen-2-yloxy]-acetic acid] | 69% | 164 to 165 °C
O=C(Cc1ccccc1)c1c(-c2ccc3c(Br)c(OCc4nnn[nH]4)ccc3c2)sc2ccccc12 [Compound 3, 1-{2-[5-Bromo-6-(1H-tetrazol-5-ylmethoxy)-naphthalen-2-yl]-benzo[b]thiophen-3-yl}-2-phenyl-ethanone] | 52% | 
O=C(O)COc1ccc2cc(-c3sc4ccccc4c3C(=O)Cc3ccccc3)ccc2c1Br [Compound 4, [1-Bromo-6-(3-phenylacetyl-benzo[b]thiophen-2-yl)-naphthalen-2-yloxy]-acetic acid] | 54% | 170 to 172 °C

Results, then the compound that gave them:

inhibition at 25 µM [1] | melting point | Compound
84% |  | CC(C)CC(=O)c1c(-c2ccc3c(Br)c(OCc4nnn[nH]4)ccc3c2)sc2ccccc12 [Compound 5, 1-{2-[5-Bromo-6-(1H-tetrazol-5-ylmethoxy)-naphthalen-2-yl]-benzo[b]thiophen-3-yl}-3-methyl-butan-1-one]
77% | 206 to 207 °C | CC(C)(C)CC(=O)c1c(-c2ccc3c(Br)c(OCC(=O)O)ccc3c2)sc2ccccc12 [Compound 6, {1-Bromo-6-[3-(3,3-dimethyl-butyryl)-benzo[b]thiophen-2-yl]-naphthalen-2-yloxy}-acetic acid]
